Test results reported in ChEMBL document CHEMBL1909046, “DrugMatrix in vitro pharmacology data”.

Experiments:
[1] = target: Prostaglandin G/H synthase 1 (Homo sapiens, UniProt P23219); test: biochemical; assay type: tissue-based, Platelet; settings: platelet;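 also: inhibition of COX-1 enzyme activity, with arachidonic acid supplied as substrate; in other assays of this panel Not Active means under 50% inhibition at 10 µM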
[2] = target: D(1A) dopamine receptor (Homo sapiens, UniProt P21728); test: DRUGMATRIX: Dopamine D1 radioligand binding (ligand: [3H] SCH-23390); assay type: cell membranes, CHO, Membrane; settings: cho; Not Active = under 50% inhibition at 10 µM
Chain of D(1A) dopamine receptor (P21728 whole entry): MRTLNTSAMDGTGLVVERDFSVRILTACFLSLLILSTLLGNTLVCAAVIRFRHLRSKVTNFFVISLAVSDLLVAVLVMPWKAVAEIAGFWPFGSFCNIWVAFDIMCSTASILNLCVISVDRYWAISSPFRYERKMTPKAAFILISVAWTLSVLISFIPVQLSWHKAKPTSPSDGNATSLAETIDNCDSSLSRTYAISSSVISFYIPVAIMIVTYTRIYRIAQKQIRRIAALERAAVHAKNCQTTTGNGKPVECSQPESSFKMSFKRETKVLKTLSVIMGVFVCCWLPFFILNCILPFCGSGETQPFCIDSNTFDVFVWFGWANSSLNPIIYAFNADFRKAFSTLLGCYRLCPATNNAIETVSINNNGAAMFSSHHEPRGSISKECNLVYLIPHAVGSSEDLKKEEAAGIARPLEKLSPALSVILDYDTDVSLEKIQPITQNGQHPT

[3] = DRUGMATRIX: Imidazoline I2, Central radioligand binding (ligand: [3H] Idazoxan); assay type: cell membranes, Rattus norvegicus, Wistar, Cerebral cortex, Membrane; settings: Not Active = under 50% inhibition at 10 µM
[4] = target: T1, Nitric oxide synthase, inducible (Mus musculus, UniProt P29477); parameters: species or system Escherichia coli;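 also: inhibition of iNOS enzyme activity measured with L-arginine as substrate; in other assays of this panel Not Active means under 50% inhibition at 10 µM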
T1 sequence (P29477 whole entry): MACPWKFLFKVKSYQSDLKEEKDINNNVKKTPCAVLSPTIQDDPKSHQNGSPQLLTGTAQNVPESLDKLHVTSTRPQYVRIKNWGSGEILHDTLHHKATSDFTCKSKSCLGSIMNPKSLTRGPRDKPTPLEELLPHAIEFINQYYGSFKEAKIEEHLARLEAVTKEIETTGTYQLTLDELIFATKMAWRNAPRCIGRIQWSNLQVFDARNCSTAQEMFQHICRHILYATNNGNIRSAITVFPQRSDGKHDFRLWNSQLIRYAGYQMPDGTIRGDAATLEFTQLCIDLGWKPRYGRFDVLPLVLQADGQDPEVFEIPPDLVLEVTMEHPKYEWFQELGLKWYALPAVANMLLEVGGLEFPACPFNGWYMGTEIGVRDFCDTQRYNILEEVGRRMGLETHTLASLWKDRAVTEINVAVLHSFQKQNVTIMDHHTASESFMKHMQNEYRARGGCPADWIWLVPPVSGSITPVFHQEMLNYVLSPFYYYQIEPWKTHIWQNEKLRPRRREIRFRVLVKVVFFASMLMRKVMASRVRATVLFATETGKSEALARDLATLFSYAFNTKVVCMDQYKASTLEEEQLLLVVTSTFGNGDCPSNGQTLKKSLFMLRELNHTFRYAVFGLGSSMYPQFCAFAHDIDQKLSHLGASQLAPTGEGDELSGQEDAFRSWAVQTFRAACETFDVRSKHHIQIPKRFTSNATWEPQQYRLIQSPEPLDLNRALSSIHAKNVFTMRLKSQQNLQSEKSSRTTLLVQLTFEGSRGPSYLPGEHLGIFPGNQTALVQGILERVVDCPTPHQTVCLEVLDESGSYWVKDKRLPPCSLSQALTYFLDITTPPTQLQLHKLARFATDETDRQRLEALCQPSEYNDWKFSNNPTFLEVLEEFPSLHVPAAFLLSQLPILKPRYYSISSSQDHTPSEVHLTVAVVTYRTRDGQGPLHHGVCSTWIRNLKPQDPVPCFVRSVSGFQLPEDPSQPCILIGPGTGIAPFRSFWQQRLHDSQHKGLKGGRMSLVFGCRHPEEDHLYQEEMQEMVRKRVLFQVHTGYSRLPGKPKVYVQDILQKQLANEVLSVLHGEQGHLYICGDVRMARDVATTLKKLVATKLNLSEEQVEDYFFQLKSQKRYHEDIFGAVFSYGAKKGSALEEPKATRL

[5] = DRUGMATRIX: Potassium Channel [KATP] radioligand binding (ligand: [3H] Glyburide); assay type: cell membranes, Membrane; settings: hit-t15; Not Active = under 50% inhibition at 10 µM
[6] = target: Mitogen-activated protein kinase 3 (Homo sapiens, UniProt P27361); test: DRUGMATRIX: Protein Serine/Threonine Kinase, ERK1 enzyme inhibition (substrate: Myelin Basic Protein); parameters: species or system Escherichia coli; settings: Not Active = under 50% inhibition at 10 µM
Chain of Mitogen-activated protein kinase 3 (P27361 whole entry): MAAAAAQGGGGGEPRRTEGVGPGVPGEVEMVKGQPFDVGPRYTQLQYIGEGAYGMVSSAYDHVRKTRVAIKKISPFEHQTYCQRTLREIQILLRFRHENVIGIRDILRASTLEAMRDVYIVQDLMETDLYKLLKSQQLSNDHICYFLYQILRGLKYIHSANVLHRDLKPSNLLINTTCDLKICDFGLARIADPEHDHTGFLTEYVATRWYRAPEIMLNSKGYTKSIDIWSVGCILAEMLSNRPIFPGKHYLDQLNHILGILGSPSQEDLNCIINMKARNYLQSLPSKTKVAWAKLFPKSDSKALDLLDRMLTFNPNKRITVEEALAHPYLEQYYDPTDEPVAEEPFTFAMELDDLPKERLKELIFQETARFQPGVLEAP

Chain of Prostaglandin G/H synthase 1 (P23219 whole entry): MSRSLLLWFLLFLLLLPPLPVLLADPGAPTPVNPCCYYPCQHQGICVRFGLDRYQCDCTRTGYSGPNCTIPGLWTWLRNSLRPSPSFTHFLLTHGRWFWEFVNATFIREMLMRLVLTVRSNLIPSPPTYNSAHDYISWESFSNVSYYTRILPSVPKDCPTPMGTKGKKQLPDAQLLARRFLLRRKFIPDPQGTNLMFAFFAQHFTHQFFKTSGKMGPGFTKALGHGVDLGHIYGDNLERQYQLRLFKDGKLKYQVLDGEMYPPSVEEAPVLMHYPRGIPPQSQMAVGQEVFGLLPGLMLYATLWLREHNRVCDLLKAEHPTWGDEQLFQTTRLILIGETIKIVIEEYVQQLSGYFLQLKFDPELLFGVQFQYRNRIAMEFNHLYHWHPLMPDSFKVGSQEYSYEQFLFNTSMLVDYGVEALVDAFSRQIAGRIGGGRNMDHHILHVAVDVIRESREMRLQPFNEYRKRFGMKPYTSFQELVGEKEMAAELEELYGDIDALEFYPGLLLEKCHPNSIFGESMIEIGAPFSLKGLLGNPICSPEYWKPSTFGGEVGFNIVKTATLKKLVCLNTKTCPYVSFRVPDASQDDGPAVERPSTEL

AURANOFIN
Not Active: IC50 [1] | Ki [1] | IC50 [2] | Ki [2] | IC50 [3] | Ki [3] | IC50 [4] | Ki [4] | IC50 [5] | Ki [5] | IC50 [6] | Ki [6]

GADOPENTETATE DIMEGLUMINE
Not Active: IC50 [1] | Ki [1] | IC50 [2] | Ki [2] | IC50 [3] | Ki [3] | IC50 [4] | Ki [4] | IC50 [5] | Ki [5] | IC50 [6] | Ki [6]

GENTAMICIN
Not Active: IC50 [1] | Ki [1] | IC50 [2] | Ki [2] | IC50 [3] | Ki [3] | IC50 [4] | Ki [4] | IC50 [5] | Ki [5] | IC50 [6] | Ki [6]

GRAMICIDIN
Not Active: IC50 [1] | Ki [1] | IC50 [2] | Ki [2] | IC50 [3] | Ki [3] | IC50 [4] | Ki [4] | IC50 [5] | Ki [5] | IC50 [6] | Ki [6]

NYSTATIN
Not Active: IC50 [1] | Ki [1] | IC50 [2] | Ki [2] | IC50 [3] | Ki [3] | IC50 [4] | Ki [4] | IC50 [5] | Ki [5] | IC50 [6] | Ki [6]
